Measurements reported in US20210046139A1, “VEGETATION WATERS AND USES THEREOF” (FATTORIA LA VIALLA DI GIANNI, ANTONIO E BANDINO LO FRANCO - …, priority 2018, published 2021).
Marks after values point to notes of the source that are not given here.

Tests used:
Format in all cases: in vivo, Sprague-Dawley rats
STZ diabetic rats [1] = experiment: Plasma total cholesterol, HDL and triglycerides; conditions: 50 mg/kg/day, 5 weeks, mean ± S.E.
Excerpt: A well-established model of streptozotocin (STZ)-induced diabetes in rats was used. Streptozotocin is a glucosamine derivative of nitrosurea which selectively destroys the β cells of the pancreatic islets and causes the development of diabetes with hyperglycemia and glycosuria. The model shares a series of characteristics with human diabetic complications at both a functional level and a biochemical level, such as, for example, a reduced nervous conduction, loss of small-diameter sensory nerve fibers in the skin, reduction in Na+ and K+-ATPase activity and early alterations of the thermal and mechanical nociceptive thresholds. In this study, diabetes was induced in 24 rats with a single intraperitoneal injection of 60 mg/kg of STZ dissolved in a sodium citrate buffer (pH 4.5). 24 rats injected only with the vehicle were used as non-diabetic controls. Hyperglycemia was confirmed by measuring glycosuria 72 hours after the injection of STZ using Keto-Diabur strips (KD-5000; Roche Diagnostics Spa, Italy). Only the animals with glycosuria >5% were classified as diabetic and included in the study. […] The animals were then randomized to receive the concentrate of the invention at an HT equivalent dose of 50 mg/kg/day or 50 mg/kg/day of pure HT in drinking water, according to the following treatment groups: The daily dose of compounds was administered starting from the 7th week after the injection of STZ or the vehicle. The treatment lasted 5 weeks and urine samples were taken. The animals were then sacrificed and the plasma, kidneys and sciatic nerves were removed. The sacrifice took place within 2 hours after the last administration of the concentrate, HT or the vehicle. At the end of the 5-week treatment period, urine and plasma were collected to measure the level of triglycerides (TG), total cholesterol (TC), high-density lipoprotein (HDL) and other parameters using commercially available diagnostic kits.

[2] = Body weight, daily food and water intake in STZ diabetic and control rats; conditions: 5 weeks; for BODY WEIGHT: 50 mg/kg/day (HT equivalent) in drinking water; for BODY WEIGHT / FOOD INTAKE: mean ± S.E.; for WATER INTAKE / FOOD INTAKE: 50 mg/kg/day
Excerpt: Use was made of 48 male Sprague-Dawley rats (Harlan, Italy) with a weight comprised from 180-200 g. A well-established model of streptozotocin (STZ)-induced diabetes in rats was used. Streptozotocin is a glucosamine derivative of nitrosurea which selectively destroys the β cells of the pancreatic islets and causes the development of diabetes with hyperglycemia and glycosuria. The model shares a series of characteristics with human diabetic complications at both a functional level and a biochemical level, such as, for example, a reduced nervous conduction, loss of small-diameter sensory nerve fibers in the skin, reduction in Na+ and K+-ATPase activity and early alterations of the thermal and mechanical nociceptive thresholds. In this study, diabetes was induced in 24 rats with a single intraperitoneal injection of 60 mg/kg of STZ dissolved in a sodium citrate buffer (pH 4.5). 24 rats injected only with the vehicle were used as non-diabetic controls. Hyperglycemia was confirmed by measuring glycosuria 72 hours after the injection of STZ using Keto-Diabur strips (KD-5000; Roche Diagnostics Spa, Italy). Only the animals with glycosuria >5% were classified as diabetic and included in the study. […] The animals were then randomized to receive the concentrate of the invention at an HT equivalent dose of 50 mg/kg/day or 50 mg/kg/day of pure HT in drinking water, according to the following treatment groups: The daily dose of compounds was administered starting from the 7th week after the injection of STZ or the vehicle. The treatment lasted 5 weeks and urine samples were taken. The animals were then sacrificed and the plasma, kidneys and sciatic nerves were removed. The sacrifice took place within 2 hours after the last administration of the concentrate, HT or the vehicle. During the trial, the rats were weighed weekly to monitor their weight gain/loss. Hyperglycemia was confirmed in every rat by measuring the glucose level in the blood taken from the vein of the tail with a suitable apparatus (Glucomen, Menarini, Italy), 15 days after the injection of STZ. A plasma glucose level above 300 mg/dL was defined as the hyperglycemia threshold for defining the animals as diabetics.

STZ diabetic rats [3] = experiment: Mechanical nociceptive threshold (Randall-Selitto test); conditions: non-diabetic rats
Excerpt: A well-established model of streptozotocin (STZ)-induced diabetes in rats was used. Streptozotocin is a glucosamine derivative of nitrosurea which selectively destroys the β cells of the pancreatic islets and causes the development of diabetes with hyperglycemia and glycosuria. The model shares a series of characteristics with human diabetic complications at both a functional level and a biochemical level, such as, for example, a reduced nervous conduction, loss of small-diameter sensory nerve fibers in the skin, reduction in Na+ and K+-ATPase activity and early alterations of the thermal and mechanical nociceptive thresholds. In this study, diabetes was induced in 24 rats with a single intraperitoneal injection of 60 mg/kg of STZ dissolved in a sodium citrate buffer (pH 4.5). 24 rats injected only with the vehicle were used as non-diabetic controls. Hyperglycemia was confirmed by measuring glycosuria 72 hours after the injection of STZ using Keto-Diabur strips (KD-5000; Roche Diagnostics Spa, Italy). […] The animals were then randomized to receive the concentrate of the invention at an HT equivalent dose of 50 mg/kg/day or 50 mg/kg/day of pure HT in drinking water, according to the following treatment groups: The mechanical nociceptive threshold (Randall-Selitto test) was assessed using an electromechanical apparatus (Ugo Basile, Varese, Italy). […]

[4] = non-diabetic control rats (CTRL)

SMILES: OCCc1ccc(O)c(O)c1 [HT, hydroxytyrosol]
- PLASMA HDL (STZ diabetic rats [1]; STZ diabetic rats): 48.7 ± 1.6 mg/dL
- PLASMA TC (STZ diabetic rats [1]; STZ diabetic rats): 118.1 ± 3.0 mg/dL
- PLASMA TG (STZ diabetic rats [1]; STZ diabetic rats): 457.1 ± 60.7 mg/dL
- PLASMA HDL (STZ diabetic rats [1]; [4]): 27.0 ± 0.4 mg/dL
- PLASMA TC (STZ diabetic rats [1]; [4]): 84.4 ± 2.1 mg/dL
- PLASMA TG (STZ diabetic rats [1]; [4]): 111.5 ± 8.6 mg/dL
- BODY WEIGHT ([2]; STZ diabetic rats): 216.6 ± 13.0 g
- WATER INTAKE ([2]; STZ diabetic rats): 170.1* ml/24 h
- FOOD INTAKE ([2]; STZ diabetic rats): 33.3 ± 3.7 g/24 h
- BODY WEIGHT [2, 4]: 450.4 ± 16.4 g
- WATER INTAKE [2, 4]: 69.5 ml/24 h
- FOOD INTAKE [2, 4]: 20.6 ± 0.9 g/24 h
- effect on mechanical nociceptive threshold (STZ diabetic rats [3]): no effect
